Results published in BigSolDB 2.1.

With `CCCCCCCCCCCCCCCCCCCCCCCCCCCCO` as the compound, how does the solubility (mole fraction) (in n-hexanol, 298.2 K) read?
The solubility (mole fraction) was 0.000906.

What about the solubility (mole fraction) (in n-hexanol, 303.2 K) of the same compound?
Its solubility (mole fraction) is 0.00126.

And the solubility (mole fraction) (in n-hexanol, 308.2 K)?
Its solubility (mole fraction) is 0.00238.

And the solubility (mole fraction) (in n-hexanol, 313.2 K)?
Its solubility (mole fraction) is 0.00436.

What about the solubility (mole fraction) (in n-hexanol, 318.2 K) of the same compound?
The solubility (mole fraction) was 0.00758.

And the solubility (mole fraction) (in n-hexanol, 323.2 K)?
The solubility (mole fraction) was 0.0148.

What about the solubility (mole fraction) (in n-hexanol, 328.2 K) of the same compound?
The solubility (mole fraction) was 0.0291.

What about the solubility (mole fraction) (in n-hexanol, 333.2 K) of the same compound?
Its solubility (mole fraction) is 0.0602.

What about the solubility (mole fraction) (in n-pentanol, 298.2 K) of the same compound?
The solubility (mole fraction) was 0.000644.

What about the solubility (mole fraction) (in n-pentanol, 303.2 K) of the same compound?
Its solubility (mole fraction) is 0.00115.

And the solubility (mole fraction) (in n-pentanol, 308.2 K)?
The solubility (mole fraction) was 0.00222.

What about the solubility (mole fraction) (in n-pentanol, 313.2 K) of the same compound?
The solubility (mole fraction) was 0.00375.

And the solubility (mole fraction) (in n-pentanol, 318.2 K)?
Its solubility (mole fraction) is 0.00658.

And the solubility (mole fraction) (in n-pentanol, 323.2 K)?
The solubility (mole fraction) was 0.013.

What about the solubility (mole fraction) (in n-pentanol, 328.2 K) of the same compound?
Its solubility (mole fraction) is 0.026.

And the solubility (mole fraction) (in toluene, 298.2 K)?
Its solubility (mole fraction) is 0.0014.

What about the solubility (mole fraction) (in toluene, 303.2 K) of the same compound?
Its solubility (mole fraction) is 0.00246.

What about the solubility (mole fraction) (in toluene, 308.2 K) of the same compound?
The solubility (mole fraction) was 0.00402.

And the solubility (mole fraction) (in toluene, 313.2 K)?
The solubility (mole fraction) was 0.00744.

And the solubility (mole fraction) (in toluene, 318.2 K)?
The solubility (mole fraction) was 0.0137.

What about the solubility (mole fraction) (in toluene, 323.2 K) of the same compound?
Its solubility (mole fraction) is 0.0291.

What about the solubility (mole fraction) (in toluene, 328.2 K) of the same compound?
The solubility (mole fraction) was 0.0588.
